From US11241477B2, “Oxytocin compositions for treatment of tinnitus” (New York University, priority 2019, dated 2022)

Tested on: tinnitus
Assay: clinical use of intranasal oxytocin formulations to treat tinnitus
Assay type: in vivo, human
From the text: In an aspect, this disclosure provides a method for treating tinnitus. The method comprises administering intranasally to an individual a composition comprising or consisting essentially of oxytocin, wherein such administration results in treatment of tinnitus. The effectiveness of treatment of tinnitus may be monitored by quantifying tinnitus, such as by self-evaluation using clinically accepted techniques. An example is the Tinnitus Handicap Inventory (“THI”), a validated and published measurement technique. (Newman et al., Arch Otolaryngol Head Neck Surg, 1996, February 122(2), 143-8). In an embodiment, the improvement in an individual using THI may comprise an improvement of at least 10%. In various embodiments, the improvement may comprise from 10-100%, such as at least 20, 30, 40, 50, 60, 70, 80, 90, 95, or 99%. This example describes clinical use of the present formulations to treat tinnitus. […] The formulation contained oxytocin, magnesium chloride, citric acid, and sodium citrate in sterile water. […] The dose was then increased to 45 IU (3 sprays of 15 IU) 4 times daily. […] A thickener was then added to the formulation keeping the oxytocin amount the same. […] Their score on the Tinnitus Handicap Inventory reduced from a pretreatment score of 96 (meaning a catastrophic level) to a current score of 14 (meaning mild or no tinnitus). The patient has remained improved over 1 year since initiating therapy. Their current dose is 22.5 IU in each nostril 4 times daily. Since their tinnitus occurs in distinct cycles, at times when tinnitus severity is loudest, they increase the dose to 5 times daily for 2 days. […] Their current handicap inventory is 8. […] The dose was increased to 45 IU 4 times daily resulting in a decrease in tinnitus volume by approximately 30%. In another patient, who developed constant tinnitus after a neck injury one year ago, a dose of 45 IU (22.5 IU in each nostril) 4 times daily was used for 30 days and is still ongoing. It has provided about 15% improvement. […] In another patient with constant tinnitus a dose of 30 IU 4 times daily has been started and treatment is ongoing.

[1] = patient with constant tinnitus, 30 IU 4 times daily, after 2 weeks
[2] = second patient, 45 IU twice daily

Structure (SMILES): CC[C@H](C)[C@@H]1NC(=O)[C@H](Cc2ccc(O)cc2)NC(=O)[C@@H](N)CSSC[C@@H](C(=O)N2CCC[C@H]2C(=O)N[C@@H](CC(C)C)C(=O)NCC(N)=O)NC(=O)[C@H](CC(N)=O)NC(=O)[C@H](CCC(N)=O)NC1=O [oxytocin]
- time remained improved since initiating therapy (first patient): over 1 year
- current handicap inventory (first patient, 22.5 IU in each nostril 4 times daily, 5 times daily for 2 days when loudest): 8
- time without tinnitus (first patient, 22.5 IU in each nostril 4 times daily, 5 times daily for 2 days when loudest, past 3 months): ≤ 10 days
- relief of tinnitus (first patient, 45 IU (3 sprays of 15 IU) 4 times daily, no thickener): significant relief
- patient-reported benefit (first patient, 60 IU daily (30 IU twice daily), oxytocin, magnesium chloride, citric acid, sodium citrate in sterile water): partial benefit
- score on the Tinnitus Handicap Inventory (first patient, formulation with thickener, pretreatment score 96 (catastrophic level)): 14
- relief of tinnitus (first patient, initial dose of less than 20 IU daily, intranasal): did not provide any relief
- tinnitus free period (first patient, thickener added to the formulation, oxytocin amount the same (45 IU 4 times daily)): several days of tinnitus free period
- relief of tinnitus (lower amounts of oxytocin (such as under 20 IU per day)): did not result in any significant relief
- improvement (patient with constant tinnitus after neck injury, 45 IU (22.5 IU in each nostril) 4 times daily for 30 days): about 15%
- tinnitus volume (patient with constant tinnitus after neck injury, dose raised to 5 times daily on occasions): diminished tinnitus volume
- time without noticing the tinnitus [1]: several hours per day without noticing the tinnitus
- tinnitus intensity [1]: tinnitus intensity has lowered
- benefit (patient with drug-caused tinnitus, 30 IU twice daily): without benefit
- decrease in tinnitus volume (patient with drug-caused tinnitus, 45 IU 4 times daily): approximately 30%
- benefit [2]: significant benefit
- reduction of tinnitus volume [2]: 45-60%
- time remaining improved on dosing schedule [2]: more than a year
- tinnitus free days [2]: some days in which they are tinnitus free
